In patent publication US20210060121A1, “NOVEL ANTIBIOTICS AND METHODS OF USING THEM” (priority 2018, published 2021):
Converted amounts (≈) assume the structure as drawn.

Key:
MRSA(SA11I4) = type: cell-based, Staphylococcus aureus
Description: (§1) Susceptibility to teixobactin and its analogues was tested on the selected Gram-positive strains using Tecan Freedom EVO high-throughput automated platform, following the standard broth dilution method as described by the Clinical and Laboratory Standards Institute ^3. MICS were determined according to CLSI guideline.

SA (ATCC29213) = type: cell-based, Staphylococcus aureus
Description: as §1

MRSA and SA strains = assay: MIC, summary over S. aureus strains; type: cell-based, Staphylococcus aureus; conditions: MRSA clinical isolate and MSSA ATCC29213; from MICs
Description: as §1

MRSA SA86 = type: cell-based, Staphylococcus aureus
Description: as §1

MRSA SA11 = type: cell-based, Staphylococcus aureus
Description: as §1

MRSA SA88 = type: cell-based, Staphylococcus aureus
Description: as §1

Enterococcus ATCCET = type: cell-based
Description: as §1

Enterococcus ET6 = type: cell-based
Description: as §1

Enterococcus ET60 = type: cell-based
Description: as §1

[1] = system: Streptococcus faecalis SF; type: cell-based
Description: as §1

Row | SMILES | Minimum inhibitory concentration (MIC) MRSA(SA11I4) (MRSA(SA11I4)) | Minimum inhibitory concentration (MIC) SA (ATCC29213) (SA (ATCC29213)) | Antibacterial activity compared with teixobactin (MRSA and SA strains) | Minimum inhibitory concentration (MIC) MRSA SA86 (MRSA SA86) | Minimum inhibitory concentration (MIC) MRSA SA11 (MRSA SA11) | Minimum inhibitory concentration (MIC) MRSA SA88 (MRSA SA88) | Minimum inhibitory concentration (MIC) Enterococcus ATCCET (Enterococcus ATCCET) | Minimum inhibitory concentration (MIC) Enterococcus ET6 (Enterococcus ET6) | Minimum inhibitory concentration (MIC) Enterococcus ET60 (Enterococcus ET60) | Minimum inhibitory concentration (MIC) Streptococcus faecalis SF [1]
1 | CC[C@@H](C)[C@@H](NC(=O)[C@@H](CCC(N)=O)NC(=O)[C@H](CO)NC(=O)[C@@H](NC(=O)[C@@H](Cc1ccccc1)NC)[C@@H](C)CC)C(=O)N[C@H](C(=O)N[C@@H](CO)C(=O)N[C@H]1C(=O)N[C@@H](C)C(=O)N[C@@H](CC2CCCCC2)C(=O)N[C@@H]([C@@H](C)CC)C(=O)O[C@H]1C)[C@@H](C)CC [Cha10-teixobactin] | 2 µg/mL (≈ 1.61 µM) | 0.5 µg/mL (≈ 0.403 µM) | comparable activities as teixobactin |  |  |  |  |  |  | 
2 | CC[C@@H](C)[C@@H](NC(=O)[C@@H](CCC(N)=O)NC(=O)[C@H](CO)NC(=O)[C@@H](NC(=O)[C@@H](Cc1ccccc1)NC)[C@@H](C)CC)C(=O)N[C@H](C(=O)N[C@@H](CO)C(=O)N[C@H]1C(=O)N[C@@H](C)C(=O)N[C@@H](CCSC)C(=O)N[C@@H]([C@@H](C)CC)C(=O)O[C@H]1C)[C@@H](C)CC [Met10-teixobactin/Methibactin, Met10-teixobactin] | 1 µg/mL (≈ 0.82 µM) | 0.25 µg/mL (≈ 0.205 µM) | two times higher activities than teixobactin |  |  |  |  |  |  | 
3 | CCCC[C@@H]1NC(=O)[C@H](C)NC(=O)[C@H](NC(=O)[C@H](CO)NC(=O)[C@@H](NC(=O)[C@H](NC(=O)[C@@H](CCC(N)=O)NC(=O)[C@H](CO)NC(=O)[C@@H](NC(=O)[C@@H](Cc2ccccc2)NC)[C@@H](C)CC)[C@H](C)CC)[C@@H](C)CC)[C@H](C)OC(=O)[C@H]([C@@H](C)CC)NC1=O [Nle10-teixobactin] | 2 µg/mL (≈ 1.66 µM) | 0.5 µg/mL (≈ 0.416 µM) | comparable activities as teixobactin |  |  |  |  |  |  | 
4 | CCC[C@@H]1NC(=O)[C@H](C)NC(=O)[C@H](NC(=O)[C@H](CO)NC(=O)[C@@H](NC(=O)[C@H](NC(=O)[C@@H](CCC(N)=O)NC(=O)[C@H](CO)NC(=O)[C@@H](NC(=O)[C@@H](Cc2ccccc2)NC)[C@@H](C)CC)[C@@H](C)CC)[C@@H](C)CC)[C@H](C)OC(=O)[C@H]([C@@H](C)CC)NC1=O [Nva10-teixobactin] | 1 µg/mL (≈ 0.842 µM) | 0.25 µg/mL (≈ 0.211 µM) | two times higher activities than teixobactin |  |  |  |  |  |  | 
5 | CC[C@H](C)[C@H](NC(=O)[C@@H](Cc1ccccc1)NC)C(=O)N[C@@H](CO)C(=O)N[C@H](CCC(N)=O)C(=O)N[C@@H](C(=O)N[C@H](C(=O)N[C@@H](CO)C(=O)N[C@H]1C(=O)N[C@@H](C)C(=O)N[C@@H](Cc2ccc(F)cc2)C(=O)N[C@@H]([C@@H](C)CC)C(=O)O[C@H]1C)[C@@H](C)CC)[C@@H](C)CC [Phe(4-F)10-teixobactin/Flurobactin, Phe(4-F)10-teixobactin] | 1 µg/mL (≈ 0.798 µM) | 0.5 µg/mL (≈ 0.399 µM) | two times higher activities than teixobactin |  |  |  |  |  |  | 
6 | CC[C@@H](C)[C@@H](NC(=O)[C@@H](CCC(N)=O)NC(=O)[C@H](CO)NC(=O)[C@@H](NC(=O)[C@@H](Cc1ccccc1)NC)[C@@H](C)CC)C(=O)N[C@H](C(=O)N[C@@H](CO)C(=O)N[C@H]1C(=O)N[C@@H](C)C(=O)N[C@@H](C2CCCCC2)C(=O)N[C@@H]([C@@H](C)CC)C(=O)N[C@H]1C)[C@@H](C)CC [T83] | 1 µg/mL (≈ 0.815 µM) | 0.5 µg/mL (≈ 0.408 µM) |  | 1 µg/mL (≈ 0.815 µM) | 0.5 µg/mL (≈ 0.408 µM) | 0.5 µg/mL (≈ 0.408 µM) | 1 µg/mL (≈ 0.815 µM) | 1 µg/mL (≈ 0.815 µM) | 0.5 µg/mL (≈ 0.408 µM) | 0.5 µg/mL (≈ 0.408 µM)
7 | CC[C@@H](C)[C@@H](NC(=O)[C@@H](CCC(N)=O)NC(=O)[C@H](CO)NC(=O)[C@@H](NC(=O)[C@@H](Cc1ccccc1)NC)[C@@H](C)CC)C(=O)N[C@H](C(=O)N[C@@H](CO)C(=O)N[C@H]1C(=O)N[C@@H](C)C(=O)N[C@@H]([C@@H](C)CC)C(=O)N[C@@H]([C@@H](C)CC)C(=O)N[C@H]1C)[C@@H](C)CC [T84] | 1 µg/mL (≈ 0.833 µM) | 0.5 µg/mL (≈ 0.416 µM) |  | 1 µg/mL (≈ 0.833 µM) | 0.5 µg/mL (≈ 0.416 µM) | 1 µg/mL (≈ 0.833 µM) | 1 µg/mL (≈ 0.833 µM) | 1 µg/mL (≈ 0.833 µM) | 1 µg/mL (≈ 0.833 µM) | 1 µg/mL (≈ 0.833 µM)
8 | CCC[C@@H]1NC(=O)[C@H](C)NC(=O)[C@H](NC(=O)[C@H](CO)NC(=O)[C@@H](NC(=O)[C@H](NC(=O)[C@@H](CCC(N)=O)NC(=O)[C@H](CO)NC(=O)[C@@H](NC(=O)[C@@H](Cc2ccccc2)NC)[C@@H](C)CC)[C@H](C)CC)[C@@H](C)CC)[C@H](C)NC(=O)[C@H]([C@@H](C)CC)NC1=O [T85] | 1 µg/mL (≈ 0.843 µM) | 0.5 µg/mL (≈ 0.421 µM) |  | 2 µg/mL (≈ 1.69 µM) | 1 µg/mL (≈ 0.843 µM) | 2 µg/mL (≈ 1.69 µM) | 2 µg/mL (≈ 1.69 µM) | 2 µg/mL (≈ 1.69 µM) | 2 µg/mL (≈ 1.69 µM) | 1 µg/mL (≈ 0.843 µM)
9 | CC[C@@H](C)[C@@H](NC(=O)[C@@H](CCC(N)=O)NC(=O)[C@H](CO)NC(=O)[C@@H](NC(=O)[C@@H](Cc1ccccc1)NC)[C@@H](C)CC)C(=O)N[C@H](C(=O)N[C@@H](CO)C(=O)N[C@H]1C(=O)N[C@@H](C)C(=O)N[C@@H](CCSC)C(=O)N[C@@H]([C@@H](C)CC)C(=O)N[C@H]1C)[C@@H](C)CC [T86] | 2 µg/mL (≈ 1.64 µM) | 1 µg/mL (≈ 0.821 µM) |  | 2 µg/mL (≈ 1.64 µM) | 1 µg/mL (≈ 0.821 µM) | 2 µg/mL (≈ 1.64 µM) | 2 µg/mL (≈ 1.64 µM) | 2 µg/mL (≈ 1.64 µM) | 2 µg/mL (≈ 1.64 µM) | 1 µg/mL (≈ 0.821 µM)
10 | CC[C@@H](C)[C@@H](NC(=O)[C@@H](CCC(N)=O)NC(=O)[C@H](CCCNC(=N)N)NC(=O)[C@@H](NC(=O)[C@@H](Cc1ccccc1)NC)[C@@H](C)CC)C(=O)N[C@H](C(=O)N[C@@H](CO)C(=O)N[C@H]1C(=O)N[C@@H](C)C(=O)N[C@@H](C2CCCCC2)C(=O)N[C@@H]([C@@H](C)CC)C(=O)O[C@H]1C)[C@@H](C)CC [T87] | 2 µg/mL (≈ 1.54 µM) | 1 µg/mL (≈ 0.771 µM) |  | 2 µg/mL (≈ 1.54 µM) | 0.5 µg/mL (≈ 0.386 µM) | 1 µg/mL (≈ 0.771 µM) | 1 µg/mL (≈ 0.771 µM) | 1 µg/mL (≈ 0.771 µM) | 0.5 µg/mL (≈ 0.386 µM) | 1 µg/mL (≈ 0.771 µM)
11 | CC[C@@H](C)[C@@H](NC(=O)[C@@H](CCC(N)=O)NC(=O)[C@H](CO)NC(=O)[C@@H](NC(=O)[C@@H](Cc1ccccc1)NC)[C@@H](C)CC)C(=O)N[C@H](C(=O)N[C@@H](CO)C(=O)N[C@H]1C(=O)N[C@@H](C)C(=O)N[C@@H](CC2CC2)C(=O)N[C@@H]([C@@H](C)CC)C(=O)O[C@H]1C)[C@@H](C)CC [β-cyclopropyl-Ala10-teixobactin] | 2 µg/mL (≈ 1.67 µM) | 0.5 µg/mL (≈ 0.417 µM) | comparable activities as teixobactin |  |  |  |  |  |  | 
